Results as given in US20070191324A1, “Methods for treatment or prophylaxis of aldosterone-mediated pathogenic effects in a subject using an epoxy-steroidal aldosterone antagonist” (priority 1999, published 2007).

Columns and labels:
[1] = system: saline-hydrated conscious dogs treated with aldosterone; assay: Antimineralocorticoid action in saline-hydrated conscious dogs treated with aldosterone (Example A-2); format: in vivo; conditions: aldosterone i.v. infusion; antagonist 10 mg/kg orally
[2] = system: L-NAME/Angiotensin II/NaCl-treated rats; assay: L-NAME/Angiotensin II/NaCl model of cardiac and renal injury (Example A-1); format: in vivo, Male Wistar rats; conditions: Epl 100 mg/kg/day p.o., ALDO 40 μg/kg/day in adrenalectomized rats
Experimental: Animals. Male Wistar rats (n=44), weighing 200 to 225 grams, and obtained from Charles River Laboratories (Wilmington, Mass.) were used in the study. All animals were housed in a room lighted 12 hours per day at an ambient temperature of 22±1° C. Animals were allowed one week to recover after arrival and had free access to Purina Lab Chow 5001 (Ralston Purina Inc, St. Louis, Mo.) and tap water until the initiation of the experiment. After initiation of the protocols, animals in all groups were placed in individual metabolic cages, handled and weighed daily. Twenty-four hour fluid intake, food intake and urine output were measured daily. […] On day 14 of L-NAME treatment, animals were decapitated, trunk blood was collected into chilled tubes containing ethylene diamine tetraacetic acid and the heart and kidneys were removed, blotted dry and immediately weighed. […] Drugs. Eplerenone was supplied by G.D. Searle Pharmaceuticals (St. […] Dexamethasone was dissolved in sesame oil and administered as a single subcutaneous dose (12 μg/kg/day) every day. This dose of dexamethasone has been reported to, maintain normal weight gain, glomerular filtration rate, and fasting plasma glucose and insulin levels in adrenalectomized rats. Stanton, B., Giebisch G et al. J. Clin. Invest 1985 75:1317-1326. The experiment was concluded on day 14 of L-NAME treatment. […] (Hou J et al. J. Clin. Invest 1995 96:2469-2477. […] This lower dose induced lesions in stroke-prone spontaneously hypertensive rats. (Rocha R et al. […] Dexamethasone, aldosterone and L-NAME were purchased from Sigma Chemical Co. (St. Louis, Mo.). […] Surgical Procedure. […] Bilateral adrenalectomy was performed using a dorsolumbar approach, making separate incisions on each side. […] No post operative deaths occurred. Assays and Analyses. Systolic blood pressure was measured in awake animals by tail-cuff plethysmography using a Natsume KN-210 manometer and tachometer (Peninsula Laboratories Inc, Belmont, Calif.). Rats were warmed at 37° C. for 10 minutes and allowed to rest quietly in a Lucite chamber before measurement of blood pressure. Urinary protein concentration was determined in urine collected on the last day of the experiment using the sulfosalicylic acid turbidity method. […] Plasma aldosterone concentration was determined using a standard radioimmunoassay-kit from Diagnostic Products Co. (Los Angeles, Calif.). Plasma renin activity (“PRA”) was determined by radioimmunoassay detection of generated angiotensin I (DiaSorin Inc., Stillwater, Minn.). Histology. Hearts were stained with collagen specific dye Sirius red for determination of fibrosis as reported elsewhere. (Young M et al. Am. J. Physiol 1995 269:[…]-[…]). Interstitial collagen was determined using an automated image analyzer. The hearts were also stained with hematoxylin and eosin for light microscopic analysis. Two or three slices of different sections of the heart containing both right and left ventricle were analyzed from each animal. […] Glomerular damage, when present, was characterized as the presence of either segmental or global sclerosis with ischemic or thrombotic changes. Renal arterial and arteriolar damage was categorized as the presence of fibrinoid necrosis of the vascular wall. The renal arterial and arteriolar profiles presenting damage were counted and the number of injured vessels per section was divided by the number of glomeruli in the same section in order to normalize for the amount of tissue examined. […] Statistical analysis. Data were tested for normality using the Kolmogorov-Smirnov test. Systolic blood pressure was analyzed using repeated measures-analysis of variance for time and treatment group. One-way analysis of variance was used for normally distributed data with one grouping variable. Post-hoc analysis was performed using Newman Keuls multiple-comparison test. Data that were not normally distributed were analyzed with the Kruskal-Wallis test. […]

[3] = system: saline-loaded adrenalectomized rats treated with aldosterone; assay: Antimineralocorticoid activity in saline-loaded adrenalectomized rats treated with aldosterone (Example A-2); format: in vivo
Experimental: Methods: The antimineralocorticoid pharmacological activity was determined in saline-loaded adrenalectomized rats treated with aldosterone. […] Urinary sodium, potassium and water excretion were measured.

[4] = system: saline-loaded adrenalectomized rats treated with aldosterone; assay: Subcutaneous vs. oral eplerenone in saline-loaded adrenalectomized rats treated with aldosterone (Example A-3); format: in vivo
Experimental: Urinary sodium, potassium and water excretion were measured. The results are expressed as the ratio of excreted urinary sodium to potassium (Na/K)±SEM.

[5] = system: uninephrectomized rats given 1% NaCl and aldosterone infusion; assay: Volume expanded hypertensive rats, telemetry (Example A-4); format: in vivo; conditions: 24 h average after three weeks
hypertensive patients = assay: Eplerenone vs. amlodipine, ambulatory blood pressure monitoring, 16 weeks (Example D-12); format: in vivo, human; conditions: in vivo
Description: This was a multicenter, randomized, double-blind, active-controlled, placebo run-in, parallel group study. […] If symptomatic hypotension occurred at Week 2 or Weeks 4, 6, 8, or 12 and the patient was on the lowest dose level (Dose Level 1), the patient was to be withdrawn. Study assessments at protocol-specified timepoints included BP, heart rate, ABPM, Holter recording, clinical laboratory analyses including serum potassium levels, concomitant medications. Throughout the study, safety was assessed by routine clinical laboratory analyses, vital signs, physical examinations, 12-lead ECG, and monitoring of adverse events.

[6] = system: older patients with systolic hypertension and/or widened pulse pressure; assay: Eplerenone versus amlodipine in systolic hypertension in older people, 24 weeks (Examples A-19, D-8); format: in vivo, human
Description: At Week 10 or thereafter, if SBP is =170 mmHg on two consecutive visits, one to three days apart, and the patient is on the maximum dose of study drug, he/she must be withdrawn. Patients will receive double-blind study medication for a total of 24 weeks. Table A-19A illustrates the above-described dosing scheme.
Heart rate, BP, serum potassium levels, concomitant medications and adverse events will be assessed at each visit. […] Special studies: collagen markers [aminoterminal propeptide of type III procollagen (PIIINP), 7S domain of type IV collagen (7SIVC), and type I collagen telopeptide (ICTP)], plasma […] (PAI-1), tissue plasminogen activator (t-PA), microalbuminuria, and at selected sites, Ambulatory Blood Pressure Monitoring (ABPM) and arterial compliance will be done at Weeks 0, 14, and 24 or at Final Visit. Quality of Life Questionnaires will be done at visit 2A (beginning of single blind) and Weeks 0, 14, and 24 or at Final Visit. DNA genotyping will be performed at baseline.
In older patients, elevated systolic BP and wide pulse pressure predict cardiovascular risk better than diastolic BP. Reduced vascular compliance and intraglomerular hypertension typically accompany isolated systolic hypertension in older people.
Changes in arterial compliance, measured by pulse-wave velocity, microalbuminuria, and adverse effects (AEs) were assessed at baseline and after 24 weeks of therapy.

[7] = Dissolution rate and physical stability of solid state forms of eplerenone; format: physicochemical; conditions: temperatures below the enantiotropic transition temperature, versus Form H
[8] = after 24 weeks, titration-to-effect

C[C@]12CCC(=O)C=C1CC[C@@H]1[C@@H]2[C@@H](O)C[C@]2(C=O)[C@@H](C(=O)CO)CC[C@@H]12 [Aldosterone]
Na/K Ratio [1]: 0.09 | Urinary Excretion Potassium [1]: 10.5 mmol/2 h | Urinary Excretion Sodium [1]: 1.0 mmol/2 h | HW ([2]; end of experiment (day 14)): 951 ± 16 mg | HW/BW (cardiac hypertrophy index) ([2]; end of experiment (day 14)): 3.57 ± .06 mg/g | SBP ([2]; end of experiment): 192 ± 7 mmHg | Urinary Na/K ± SEM ([3]; aldosterone alone): 1.68 ± 0.04 | Mean Na/K ([4]; Table A-3A, aldosterone alone): 1.68 | Mean Na/K ([4]; Table A-3B, aldosterone alone): 1.21 | HR: Heart Rate ([5]; aldosterone & vehicle): 346 ± 6 beats/min | SAP: Systolic arterial pressure ([5]; aldosterone & vehicle): 202 ± 7 mmHg

CCOC(=O)C1=C(COCCN)NC(C)=C(C(=O)OC)C1c1ccccc1Cl (centres unmarked) [Amlodipine, reference compound]
incidence of peripheral edema (hypertensive patients): greater incidence of peripheral edema | safety and tolerability (hypertensive patients): safe and well tolerated | Edema rates (%) ([6]; 24-week study): 25.2% | peripheral edema frequency ([6]; 24 weeks): 25.2% | reduction in pulse pressure ([6]; 24 weeks): −13.4 mmHg | symptoms with significant and clinically meaningful worsening in distress from Baseline (QoL) ([6]; 24 weeks): 21 symptoms | reduction in SBP ([6]; 24 weeks, EPL 50-200 mg QD, AML 2.5-10 mg QD): −20.1 mmHg | Pulse Pressure (change) [6, 8]: −13.4 ± 0.95 mmHg | Systolic BP (change) [6, 8]: −20.1 ± 1.13 mmHg | safety and tolerability ([6]; in vivo): safe and well tolerated | Δ microalbuminuria (%) ([6]; only for patients with baseline microalbuminuria (>30 mg/g), 24 weeks): −10.4% | reduction in UACR ([6]; patients with baseline microalbuminuria (>30 mg/g)): −3.3%

COC(=O)[C@@H]1CC2=CC(=O)CC[C@]2(C)[C@@]23O[C@@H]2C[C@@]2(C)[C@@H](CC[C@@]24CCC(=O)O4)[C@H]13 [Form L]
physical stability [7]: greater physical stability

CC(=O)S[C@@H]1CC2=CC(=O)CC[C@]2(C)[C@H]2CC[C@@]3(C)[C@@H](CC[C@@]34CCC(=O)O4)[C@H]12 [Spironolactone]
Na/K Ratio [1]: 1.7 | Urinary Excretion Potassium [1]: 7.4 ± 0.7 mmol/2 h | Urinary Excretion Sodium [1]: 12.6 ± 2 mmol/2 h | Urinary Na/K ± SEM ([3]; aldosterone & antagonist 1 mg/kg by gavage): 2.26 ± 0.25 | Urinary Na/K ± SEM ([3]; aldosterone & antagonist 3 mg/kg by gavage): 2.90 ± 0.25 | Urinary Na/K ± SEM ([3]; aldosterone & antagonist 10 mg/kg by gavage): 4.38 ± 0.26 | Mean Na/K ([4]; Table A-3A, aldosterone + antagonist 10 mg/100 g rat): 1.56 | Mean Na/K ([4]; Table A-3A, aldosterone + antagonist 30 mg/100 g rat): 3.02 | Mean Na/K ([4]; Table A-3A, aldosterone + antagonist 100 mg/100 g rat): 4.02 | HR: Heart Rate ([5]; aldosterone & antagonist 100 mg/kg s.c.): 338 ± 4 beats/min | HR: Heart Rate ([5]; aldosterone & antagonist 200 mg/kg s.c.): 336 ± 7 beats/min
